Measured values reported in patent US10294202B2, “Pyrrolidinones as herbicides” (FMC Corporation, priority 2013, dated 2019).

Columns and labels:
[1] = tested on: wheat; test: Test A pre-/postemergence herbicide test; type: in vivo, Triticum aestivum; conditions: Postemergence
Summary of the method: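 Seeds in loam–sand blend received preemergence directed soil spray; separately, plants 2–10 cm at one- to two-leaf stage received postemergence spray, both with test chemicals in non-phytotoxic solvent with surfactant. After ~10 days in greenhouse, injury rated visually against untreated controls, 0 (no effect) to 100 (complete control).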

[2] = tested on: rice; test: Test B flooded paddy test; type: in vivo, Oryza sativa; conditions: 500 g ai/ha, Flood; scale of 0 to 100 where 0 is no effect and 100 is complete control
Summary of the method: (§1)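 Paddy-water application at a 3 cm flood, young plants having two leaves. Water level maintained; greenhouse, 13–15 days; visual 0–100 control rating.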

[3] = tested on: sedge, umbrella; test: Test B flooded paddy test; type: in vivo, Cyperus difformis; conditions: 500 g ai/ha, Flood; scale of 0 to 100 where 0 is no effect and 100 is complete control
Summary of the method: as §1

[4] = tested on: ducksalad; test: Test B flooded paddy test; type: in vivo, Heteranthera limosa; conditions: 500 g ai/ha, Flood; scale of 0 to 100 where 0 is no effect and 100 is complete control
Summary of the method: as §1

[5] = tested on: barnyardgrass; test: Test B flooded paddy test; type: in vivo, Echinochloa crus-galli; conditions: 500 g ai/ha, Flood; scale of 0 to 100 where 0 is no effect and 100 is complete control
Summary of the method: as §1

[6] = tested on: ryegrass, Italian; test: Test C pre-/postemergence herbicide test; type: in vivo, Lolium multiflorum
Summary of the method: (§2)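 Pre-emergence: seeds sown in loam/sand blend and treated with compound in surfactant-containing solvent. Post-emergence: plants at 2–18 cm (1- to 4-leaf stage) in peat-based medium sprayed with the same formulation. Visual rating versus controls after 13–15 days in greenhouse, scale 0 (no effect) to 100 (complete control).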

[7] = tested on: corn; test: Test C pre-/postemergence herbicide test; type: in vivo, Zea mays
Summary of the method: as §2

[8] = tested on: johnsongrass; test: Test C pre-/postemergence herbicide test; type: in vivo, Sorghum halepense
Summary of the method: as §2

[9] = tested on: nutsedge, yellow; test: Test C pre-/postemergence herbicide test; type: in vivo, Cyperus esculentus
Summary of the method: as §2

[10] = tested on: pigweed; test: Test C pre-/postemergence herbicide test; type: in vivo, Amaranthus retroflexus
Summary of the method: as §2

[11] = tested on: ragweed; test: Test C pre-/postemergence herbicide test; type: in vivo, Ambrosia elatior
Summary of the method: as §2

[12] = tested on: soybean; test: Test C pre-/postemergence herbicide test; type: in vivo, Glycine max
Summary of the method: as §2

[13] = tested on: oilseed rape; test: Test C pre-/postemergence herbicide test; type: in vivo, Brassica napus
Summary of the method: as §2

[14] = 125 g ai/ha, visual rating on 0 to 100 scale (0 no effect, 100 complete control), approx. 10 days
[15] = 500 g ai/ha, 0 to 100 scale (0 no effect, 100 complete control)
[16] = Postemergence, 31 g ai/ha, scale 0 to 100 (0 no effect, 100 complete control)
[17] = Postemergence, 62 g ai/ha, scale 0 (no effect) to 100 (complete control)
[18] = Postemergence, 125 g ai/ha, scale 0 to 100 (0 no effect, 100 complete control)
[19] = Postemergence, 250 g ai/ha, scale 0 to 100 (0 no effect, 100 complete control)
[20] = Preemergence, 62 g ai/ha, scale 0 to 100 (0 no effect, 100 complete control)
[21] = Preemergence, 125 g ai/ha, scale 0 to 100
[22] = Preemergence, 31 g ai/ha, scale 0 to 100, 0 is no effect and 100 is complete control
[23] = Postemergence, 16 g ai/ha, scale 0 to 100 (0 no effect, 100 complete control)
[24] = Preemergence, 125 g ai/ha, scale 0 to 100 (0 no effect, 100 complete control)
[25] = Preemergence, 16 g ai/ha, scale 0 to 100

Cc1cccc(NC(=O)C2C(=O)NCC2c2cccc(C(F)(F)F)c2)c1 (stereo not shown) [Compound 317]
Plant response rating, Wheat [1, 14]: 0
Plant response rating, Wheat [1, 15]: 20
Plant response rating, Rice [2]: 0
Plant response rating, Sedge, Umbrella [3]: 0
Plant response rating, Ducksalad [4]: 80
Plant response rating, Barnyardgrass [5]: 75
Plant response rating, Ryegrass, Italian [6, 16]: 0
Plant response rating, Ryegrass, Italian [6, 17]: 0
Plant response rating, Ryegrass, Italian [6, 18]: 0
Plant response rating, Ryegrass, Italian [6, 19]: 0
Ryegrass, Italian plant response rating [6, 20]: 0
Plant response rating, Ryegrass, Italian [6, 21]: 0
Plant response rating, Corn [7, 16]: 0
Plant response rating, Corn [7, 17]: 0
Plant response rating, Corn [7, 18]: 0
Plant response rating, Corn [7, 19]: 0
Corn plant response rating [7, 22]: 0
Corn plant response rating [7, 20]: 0
Plant response rating, Corn [7, 21]: 25
Plant response rating (scale of 0 to 100), Corn ([7]; Preemergence, 250 g ai/ha): 30
Plant response rating, Johnsongrass [8, 16]: 0
Plant response rating, Johnsongrass [8, 17]: 0
Plant response rating, Johnsongrass [8, 18]: 0
Plant response rating, Johnsongrass [8, 19]: 5
Johnsongrass plant response rating [8, 22]: 0
Johnsongrass plant response rating [8, 20]: 0
Plant response rating, Johnsongrass [8, 21]: 0
Plant response rating (scale of 0 to 100), Johnsongrass ([8]; Preemergence, 250 g ai/ha): 30
Plant response rating, Nutsedge, Yellow [9, 16]: 0
Plant response rating, Nutsedge, Yellow [9, 17]: 0
Plant response rating, Nutsedge, Yellow [9, 18]: 0
Plant response rating, Nutsedge, Yellow [9, 19]: 0
Nutsedge, Yellow plant response rating [9, 22]: 0
Nutsedge, Yellow plant response rating [9, 20]: 0
Plant response rating, Nutsedge, Yellow [9, 21]: 20
Plant response rating (scale of 0 to 100), Nutsedge, Yellow ([9]; Preemergence, 250 g ai/ha): 70
Plant response rating, Pigweed [10, 16]: 5
Plant response rating, Pigweed [10, 17]: 5
Plant response rating, Pigweed [10, 18]: 5
Plant response rating, Pigweed [10, 19]: 5
Pigweed plant response rating [10, 22]: 0
Pigweed plant response rating [10, 20]: 0
Plant response rating, Pigweed [10, 21]: 0
Plant response rating, Ragweed [11, 16]: 0
Plant response rating, Ragweed [11, 17]: 0
Plant response rating, Ragweed [11, 18]: 25
Plant response rating, Ragweed [11, 19]: 40
Ragweed plant response rating [11, 20]: 0
Plant response rating, Ragweed [11, 21]: 0
Plant response rating, Soybean [12, 16]: 0
Plant response rating, Soybean [12, 17]: 0
Plant response rating, Soybean [12, 18]: 0
Plant response rating, Soybean [12, 19]: 0
Soybean plant response rating [12, 20]: 0
Plant response rating, Soybean [12, 21]: 0
Plant response rating, Oilseed Rape [13, 16]: 0
Plant response rating, Oilseed Rape [13, 17]: 0
Plant response rating, Oilseed Rape [13, 18]: 0
Plant response rating, Oilseed Rape [13, 19]: 0
Oilseed Rape plant response rating [13, 22]: 0
Oilseed Rape plant response rating [13, 20]: 0
Plant response rating, Oilseed Rape [13, 21]: 0
Plant response rating (scale of 0 to 100), Oilseed Rape ([13]; Preemergence, 250 g ai/ha): 0

CN1CC(c2cccc(C(F)(F)F)c2)C(C(=O)Nc2ccccc2F)C1=O (stereo not shown) [Compound 277]
Plant response rating, Wheat [1, 14]: 60
Plant response rating, Wheat [1, 15]: 70
Plant response rating, Rice [2]: 0
Plant response rating, Sedge, Umbrella [3]: 0
Plant response rating, Ducksalad [4]: 100
Plant response rating, Barnyardgrass [5]: 90
Plant response rating, Ryegrass, Italian [6, 23]: 0
Plant response rating, Ryegrass, Italian [6, 16]: 0
Plant response rating, Ryegrass, Italian [6, 17]: 5
Plant response rating, Ryegrass, Italian [6, 18]: 35
Ryegrass, Italian plant response rating [6, 22]: 40
Ryegrass, Italian plant response rating [6, 20]: 35
Plant response rating, Ryegrass, Italian [6, 24]: 40
Plant response rating, Ryegrass, Italian [6, 25]: 30
Plant response rating, Corn [7, 23]: 0
Plant response rating, Corn [7, 16]: 0
Plant response rating, Corn [7, 17]: 20
Plant response rating, Corn [7, 18]: 10
Corn plant response rating [7, 22]: 25
Corn plant response rating [7, 20]: 85
Plant response rating, Corn [7, 24]: 90
Plant response rating, Corn [7, 25]: 0
Plant response rating, Johnsongrass [8, 23]: 0
Plant response rating, Johnsongrass [8, 16]: 0
Plant response rating, Johnsongrass [8, 17]: 0
Plant response rating, Johnsongrass [8, 18]: 10
Johnsongrass plant response rating [8, 22]: 40
Johnsongrass plant response rating [8, 20]: 65
Plant response rating, Johnsongrass [8, 24]: 85
Plant response rating, Johnsongrass [8, 25]: 0
Plant response rating, Nutsedge, Yellow [9, 23]: 0
Plant response rating, Nutsedge, Yellow [9, 16]: 10
Plant response rating, Nutsedge, Yellow [9, 17]: 0
Plant response rating, Nutsedge, Yellow [9, 18]: 0
Nutsedge, Yellow plant response rating [9, 22]: 0
Nutsedge, Yellow plant response rating [9, 20]: 20
Plant response rating, Nutsedge, Yellow [9, 24]: 20
Plant response rating, Nutsedge, Yellow [9, 25]: 0
Plant response rating, Pigweed [10, 23]: 5
Plant response rating, Pigweed [10, 16]: 10
Plant response rating, Pigweed [10, 17]: 10
Plant response rating, Pigweed [10, 18]: 30
Pigweed plant response rating [10, 22]: 10
Pigweed plant response rating [10, 20]: 35
Plant response rating, Pigweed [10, 24]: 40
Plant response rating, Pigweed [10, 25]: 0
Plant response rating, Ragweed [11, 23]: 10
Plant response rating, Ragweed [11, 16]: 40
Plant response rating, Ragweed [11, 17]: 35
Plant response rating, Ragweed [11, 18]: 40
Ragweed plant response rating [11, 22]: 0
Ragweed plant response rating [11, 20]: 0
Plant response rating, Ragweed [11, 24]: 40
Plant response rating, Ragweed [11, 25]: 0
Plant response rating, Soybean [12, 23]: 0
Plant response rating, Soybean [12, 16]: 0
Plant response rating, Soybean [12, 17]: 0
Plant response rating, Soybean [12, 18]: 0
Soybean plant response rating [12, 22]: 0
Soybean plant response rating [12, 20]: 0
Plant response rating, Soybean [12, 24]: 5
Plant response rating, Soybean [12, 25]: 0
Plant response rating, Oilseed Rape [13, 23]: 0
Plant response rating, Oilseed Rape [13, 16]: 0
Plant response rating, Oilseed Rape [13, 17]: 0
Plant response rating, Oilseed Rape [13, 18]: 0
Oilseed Rape plant response rating [13, 22]: 0
Oilseed Rape plant response rating [13, 20]: 0
Plant response rating, Oilseed Rape [13, 24]: 80
Plant response rating, Oilseed Rape [13, 25]: 0
